According to PubChem BioAssay AID2060496 (Molecular Pharmacology Branch, DTP, NCI, 2025):
Values joined by “and” are separate entries in the source; they are usually repeats but may differ in a detail not shown here. Equal entries are not always repeated.

System: 276233-004-R-J1-PDC complex spheroid viability
Test: Anticancer human tumor 276233-004-R-J1-PDC patient-derived colon adenocarcinoma cell line growth inhibition [GQUAD]
Conditions: for viability, T/C: stronger effect = lower value; active means viability on the fitted dose curve at most 10% of control; inactive means the rest
Text: DNA G-quadruplex Stabilizer Agents in Combinations in Complex Spheroids
A high-throughput screen of multi-cell type tumor spheroids was designed to identify active combinations of DNA G-quadruplex stabilizer agents and targeted small molecules. Complex spheroids include a stromal component modeled by human endothelial cells (HUVEC) and fibroblasts modeled by human mesenchymal stem cells (MSCs). The concentration ranges selected for each drug and investigational agent were based upon clinically achievable concentrations if the clinical Cmax of the agent was known.
Compounds. The drugs and investigational agents: pidnarulex (CX-5461; NSC782164), APTO-253 (NSC789042), BRACO-19 (NSC847499), peposertib (NSC802822), ceralasertib (NSC780249), elimusertib (NSC800525), camonsertib (NSC841442), AZD-1390 (NSC803789), olaparib (NSC753686), talazoparib (NSC767125), ART-558 (NSC835418), sotorasib (NSC818433), MRTX-1133 (NSC836407), SN-38 (NSC673596), topotecan (NSC609699), etoposide (NSC141540), doxorubicin (NSC123127), gemcitabine (NSC613327), 5-fluorouracil (NSC19893), paclitaxel (NSC125973), vemurafenib (NSC761431), panobinostat (NSC761190), R-306465 (JNJ-16241199; NSC773264), adavosertib (NSC754352), TP-3654 (NSC805149), carboplatin (NSC241240), KSQ-4279 (NSC840948), and staurosporine (NSC755774) were obtained from the National Cancer Institute (NCI) Developmental Therapeutics Program Chemical Repository (34). The FDA-approved anticancer drug set is available from the NCI Developmental Therapeutics Program. […] The stock solutions were prepared in dimethyl sulfoxide (DMSO, Sigma-Aldrich, St. Louis, MO, cat. D2650) at 800-fold the tested concentration and stored at -70 degrees C prior to their use. All drugs and investigational agents were tested over a range starting from a high concentration at or near the clinical Cmax and decreasing in half-log increments. If the clinical Cmax for an agent had not been determined, the highest concentration tested was 10 microM.
2.3 Cell Culture. All cells were maintained in an incubator at 37 degrees C and 5% CO2 with 95% humidity. The PDC lines were cultured according to standard operating procedures established by the NCI PDMR. All PDCs were thawed and cultured in Matrigel-coated flasks prepared with a working solution of 1X Ham's F-12 nutrient mix, without supplementation (Invitrogen, cat. 11765054), 100 U/mL penicillin-streptomycin (Invitrogen, cat. 15140122), and 2.5% Matrigel (Corning Inc., cat. 354248) for the first three passages. The 857933-349-R-J2-PDC line was cultured in 6C/Colon 1B media, which includes advanced DMEM/F-12 (Thermo Fisher Scientific, cat. 12634028), 10 mM HEPES (Thermo Fisher Scientific, cat. 15630080), 1X GlutaMAX supplement (Thermo Fisher Scientific, cat. 35050061), 0.1 mg/mL primocin (InvivoGen, cat. ant-pm-2), 10% defined fetal bovine serum, heat inactivated (HyClone Laboratories Inc., cat. SH30070.03HI), 50% L-WRN conditioned media (ATCC, cat. CRL-3276), 1.25 mM N-Acetyl-L-cysteine (Sigma-Aldrich, cat. A9165), 10 mM nicotinamide (Sigma-Aldrich, cat. N0636), 1X B-27 supplement (Thermo Fisher Scientific, cat. 17504044), 1X N-2 supplement (Thermo Fisher Scientific, cat. 17502048), 10 microM Y-27632 dihydrochloride (Tocris Bioscience, cat. 1254), and 50 ng/mL human EGF recombinant protein (Thermo Fisher Scientific, cat. PHG0311). The 485176-168-R4-J1-PDC line was cultured in Panc media, which includes all 6C/Colon 1B media components plus 100 ng/mL human FGF-10 (Thermo Fisher Scientific, cat. 100-26), 500 nM SB-431542 (Selleckchem, cat. S1067), and gastrin (Tocris, cat. 3006).
[…]

[1] = curve of first compound, second compound 0.0316 µM
[2] = curve of first compound, second compound 0.1 µM
[3] = curve of first compound, second compound 0.316 µM
[4] = curve of first compound, second compound 1 µM
[5] = curve of first compound, second compound 3.16 µM
[6] = curve of first compound, second compound 10 µM
[7] = second compound 0.0316 µM, first compound 0.000999 µM
[8] = second compound 0.0316 µM, first compound 0.00316 µM
[9] = second compound 0.0316 µM, first compound 0.00999 µM
[10] = second compound 0.0316 µM, first compound 0.0316 µM
[11] = second compound 0.0316 µM, first compound 0.0999 µM
[12] = second compound 0.0316 µM, first compound 0.316 µM
[13] = second compound 0.1 µM, first compound 0.000999 µM
[14] = second compound 0.1 µM, first compound 0.00316 µM
[15] = second compound 0.1 µM, first compound 0.00999 µM
[16] = second compound 0.1 µM, first compound 0.0316 µM
[17] = second compound 0.1 µM, first compound 0.0999 µM
[18] = second compound 0.1 µM, first compound 0.316 µM
[19] = second compound 0.316 µM, first compound 0.000999 µM
[20] = second compound 0.316 µM, first compound 0.00316 µM
[21] = second compound 0.316 µM, first compound 0.00999 µM
[22] = second compound 0.316 µM, first compound 0.0316 µM
[23] = second compound 0.316 µM, first compound 0.0999 µM
[24] = second compound 0.316 µM, first compound 0.316 µM
[25] = second compound 1 µM, first compound 0.000999 µM
[26] = second compound 1 µM, first compound 0.00316 µM
[27] = second compound 1 µM, first compound 0.00999 µM
[28] = second compound 1 µM, first compound 0.0316 µM
[29] = second compound 1 µM, first compound 0.0999 µM
[30] = second compound 1 µM, first compound 0.316 µM
[31] = second compound 3.16 µM, first compound 0.000999 µM
[32] = second compound 3.16 µM, first compound 0.00316 µM
[33] = second compound 3.16 µM, first compound 0.00999 µM
[34] = second compound 3.16 µM, first compound 0.0316 µM
[35] = second compound 3.16 µM, first compound 0.0999 µM
[36] = second compound 3.16 µM, first compound 0.316 µM
[37] = second compound 10 µM, first compound 0.000999 µM
[38] = second compound 10 µM, first compound 0.00316 µM
[39] = second compound 10 µM, first compound 0.00999 µM
[40] = second compound 10 µM, first compound 0.0316 µM
[41] = second compound 10 µM, first compound 0.0999 µM
[42] = second compound 10 µM, first compound 0.316 µM
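Further: spheroids exposed to drugs for seven days.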

Cc1[nH]c2ccccc2c1CCNCc1ccc(/C=C/C(=O)NO)cc1 + CN(C)c1ccc(Nc2c3ccc(NC(=O)CCN4CCCC4)cc3nc3cc(NC(=O)CCN4CCCC4)ccc23)cc1
47.7 nM: IC50 [4]
inactive: viability, T/C [7] 99.1% | viability, T/C [8] 79% | viability, T/C [9] 80.2% | viability, T/C [10] 84% | viability, T/C [11] 77.5% | viability, T/C [12] 23.2% | viability, T/C [13] 87.7% | viability, T/C [14] 90.7% | viability, T/C [15] 60.1% | viability, T/C [16] 71.3% | viability, T/C [17] 79% | viability, T/C [18] 17.2% | viability, T/C [19] 57.8% | viability, T/C [20] 78.7% | viability, T/C [21] 59.6% | viability, T/C [22] 50% | viability, T/C [23] 85% | viability, T/C [24] 29.6% | viability, T/C [25] 58.2% | viability, T/C [26] 54.2% | viability, T/C [27] 47.9% | viability, T/C [28] 64.3% | viability, T/C [29] 38.9% | viability, T/C [30] 21.8% | viability, T/C [31] 45.3% | viability, T/C [32] 47.9% | viability, T/C [33] 42.6% | viability, T/C [34] 40.3% | viability, T/C [35] 28.1% | viability, T/C [37] 29.1% | viability, T/C [38] 39.6% | viability, T/C [39] 38.8% | viability, T/C [40] 29.3% | viability, T/C [41] 34% | viability, T/C [42] 3.25%
166 nM: IC50 [3]
178 nM: IC50 [1]
active: viability, T/C [36] 8.05%
< 0.999 nM: IC50 [5] | IC50 [6]
169 nM: IC50 [2]

COc1cc(C2c3cc4c(cc3C(OC3OC5COC(C)OC5C(O)C3O)C3COC(=O)C23)OCO4)cc(OC)c1O (stereo unspecified)
> 10000 nM: IC50 (curve of compound)
inactive: viability, T/C (compound 0.0316 µM) 94.5% and 86% and 83.5% | viability, T/C (compound 0.1 µM) 85% and 92% and 84.5% | viability, T/C (compound 0.316 µM) 88% and 89.3% and 89.8% | viability, T/C (compound 1 µM) 81.9% and 83.7% and 91% | viability, T/C (compound 3.16 µM) 99% and 101% and 88.6% | viability, T/C (compound 10 µM) 92.4% and 79.9% and 85%

CCc1c2c(nc3ccc(O)cc13)-c1cc3c(c(=O)n1C2)COC(=O)[C@]3(O)CC + CN(C)c1ccc(Nc2c3ccc(NC(=O)CCN4CCCC4)cc3nc3cc(NC(=O)CCN4CCCC4)ccc23)cc1
inactive: viability, T/C [7] 102% | viability, T/C [8] 104% | viability, T/C [9] 104% | viability, T/C [10] 105% | viability, T/C [11] 108% | viability, T/C [12] 117% | viability, T/C [13] 94.3% | viability, T/C [14] 84.9% | viability, T/C [15] 101% | viability, T/C [16] 107% | viability, T/C [17] 99.7% | viability, T/C [18] 117% | viability, T/C [19] 60.1% | viability, T/C [20] 71.1% | viability, T/C [21] 75.7% | viability, T/C [22] 76.4% | viability, T/C [23] 79.5% | viability, T/C [24] 91.8% | viability, T/C [25] 60.3% | viability, T/C [26] 50.9% | viability, T/C [27] 67.2% | viability, T/C [28] 71.6% | viability, T/C [29] 70% | viability, T/C [30] 89.7% | viability, T/C [31] 50.8% | viability, T/C [32] 46.4% | viability, T/C [33] 72.6% | viability, T/C [34] 70.8% | viability, T/C [35] 75.3% | viability, T/C [36] 70.4% | viability, T/C [37] 44% | viability, T/C [38] 55.1% | viability, T/C [39] 59.1% | viability, T/C [40] 65.9% | viability, T/C [41] 78.5% | viability, T/C [42] 76.4%
> 316 nM: IC50 [1] | IC50 [2] | IC50 [3] | IC50 [4]
< 0.999 nM: IC50 [5] | IC50 [6]
